Reference: ChEMBL document CHEMBL1201862, “PubChem BioAssay data set” (2004)
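Each compound was tested at five concentrations against cells in 96-well plates for 48 hours. At the GI50, growth is halved.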 The source made the active and inactive calls. Rule as the data show it: active = GI50 up to about 1.1 µM and inactive = higher.

Assays:
Test in all cases: NCI tumour cell line growth inhibition, 48 h
786-0 = test system: 786-0
CAKI-1 = test system: CAKI-1
COLO 205 = test system: COLO 205
HL-60 = test system: HL-60
HOP-92 = test system: HOP-92
Hs-578T = test system: Hs-578T
K562 = test system: K562
LOX IMVI = test system: LOX IMVI
MOLT-4 = test system: MOLT-4
NCI-H23 = test system: NCI-H23
NCI-H522 = test system: NCI-H522
NCI/ADR-RES = test system: NCI/ADR-RES
OVCAR-4 = test system: OVCAR-4
OVCAR-5 = test system: OVCAR-5
SF-268 = test system: SF-268
SNB-19 = test system: SNB-19
SR = test system: SR
T47D = test system: T47D
TK-10 = test system: TK-10
SNB-75 = test system: SNB-75

| SMILES | GI50 (786-0) | GI50 (CAKI-1) | GI50 (COLO 205) | GI50 (HL-60) | GI50 (HOP-92) | GI50 (Hs-578T) | GI50 (K562) | GI50 (LOX IMVI) | GI50 (MOLT-4) | GI50 (NCI-H23) | GI50 (NCI-H522) | GI50 (NCI/ADR-RES) | GI50 (OVCAR-4) | GI50 (OVCAR-5) | GI50 (SF-268) | GI50 (SNB-19) | GI50 (SR) | GI50 (T47D) | GI50 (TK-10) | GI50 (SNB-75) |
| --- | --- | --- | --- | --- | --- | --- | --- | --- | --- | --- | --- | --- | --- | --- | --- | --- | --- | --- | --- | --- |
| CCN1C(Cl)=NS(=O)(=O)c2ccccc21 | 19.3 µM (inactive) | 1.93 µM (inactive) | 14.9 µM (inactive) | 3.87 µM (inactive) | 18.8 µM (inactive) | 36.9 µM (inactive) | 7.83 µM (inactive) | 15.7 µM (inactive) | 10.2 µM (inactive) | 23.6 µM (inactive) | 4.66 µM (inactive) | 26.5 µM (inactive) | 19.4 µM (inactive) | 26.4 µM (inactive) | 36.6 µM (inactive) | 35.5 µM (inactive) | 34.1 µM (inactive) | 30 µM (inactive) | 18.5 µM (inactive) | – |
| N#Cc1c(N)c2c(c(-c3ccccc3)c1-c1ccccc1)C(=O)N(Nc1ccccc1)C2=O | 40.6 µM (inactive) | 63.1 µM (inactive) | 20.7 µM (inactive) | 22.8 µM (inactive) | 48.1 µM (inactive) | 95.3 µM (inactive) | 33.6 µM (inactive) | 16.9 µM (inactive) | 27.4 µM (inactive) | – | 58.6 µM (inactive) | 38.2 µM (inactive) | 35.1 µM (inactive) | 27 µM (inactive) | 59.2 µM (inactive) | 45.8 µM (inactive) | 36.2 µM (inactive) | 19.4 µM (inactive) | 42.1 µM (inactive) | 38.4 µM (inactive) |
| O=c1[nH]nc(-c2ccccc2)n1-n1cnnc1 | > 100 µM (inactive) | > 100 µM (inactive) | > 100 µM (inactive) | – | > 100 µM (inactive) | > 100 µM (inactive) | > 100 µM (inactive) | > 100 µM (inactive) | > 100 µM (inactive) | > 100 µM (inactive) | > 100 µM (inactive) | > 100 µM (inactive) | > 100 µM (inactive) | > 100 µM (inactive) | > 100 µM (inactive) | > 100 µM (inactive) | > 100 µM (inactive) | > 100 µM (inactive) | > 100 µM (inactive) | > 100 µM (inactive) |
| Cc1cc2c(cc1Cl)SC(NNCCO)=NS2(=O)=O | > 100 µM (inactive) | > 100 µM (inactive) | > 100 µM (inactive) | > 100 µM (inactive) | > 100 µM (inactive) | > 100 µM (inactive) | 56.2 µM (inactive) | > 100 µM (inactive) | > 100 µM (inactive) | > 100 µM (inactive) | – | > 100 µM (inactive) | > 100 µM (inactive) | – | > 100 µM (inactive) | > 100 µM (inactive) | > 100 µM (inactive) | > 100 µM (inactive) | > 100 µM (inactive) | > 100 µM (inactive) |
| COc1ccc2[nH]c3cc4c(=O)c5cc(OC)ccc5[nH]c4cc3c(=O)c2c1 | 99.1 µM (inactive) | > 100 µM (inactive) | > 100 µM (inactive) | 10.8 µM (inactive) | > 100 µM (inactive) | > 100 µM (inactive) | > 100 µM (inactive) | – | > 100 µM (inactive) | > 100 µM (inactive) | > 100 µM (inactive) | > 100 µM (inactive) | > 100 µM (inactive) | > 100 µM (inactive) | > 100 µM (inactive) | > 100 µM (inactive) | > 100 µM (inactive) | > 100 µM (inactive) | > 100 µM (inactive) | 26.9 µM (inactive) |
| O=C1CC2CCC(C1)[S+]2[O-] (configuration not stated) | > 100 µM (inactive) | > 100 µM (inactive) | > 100 µM (inactive) | > 100 µM (inactive) | > 100 µM (inactive) | > 100 µM (inactive) | > 100 µM (inactive) | > 100 µM (inactive) | > 100 µM (inactive) | > 100 µM (inactive) | > 100 µM (inactive) | > 100 µM (inactive) | > 100 µM (inactive) | – | > 100 µM (inactive) | > 100 µM (inactive) | > 100 µM (inactive) | > 100 µM (inactive) | > 100 µM (inactive) | > 100 µM (inactive) |
| CCCS(=O)OC1C(C2COC(C)(C)O2)OC2OC(C)(C)OC21 (configuration not stated) | 13.2 µM (inactive) | 11.6 µM (inactive) | 11.7 µM (inactive) | – | 5.87 µM (inactive) | 4.46 µM (inactive) | 5.65 µM (inactive) | 6.43 µM (inactive) | 1.63 µM (inactive) | 7.26 µM (inactive) | 9.27 µM (inactive) | 17.5 µM (inactive) | 15.2 µM (inactive) | 12.2 µM (inactive) | 17.9 µM (inactive) | 15 µM (inactive) | 0.497 µM (active) | 20.9 µM (inactive) | 16.2 µM (inactive) | 12.9 µM (inactive) |
